Results taken from patent US20220280644A1, “"TRPswitch" - A STEP FUNCTION CHEMO-OPTOGENETIC LIGAND” (UNIVERSITY OF UTAH RESEARCH FOUNDATION, priority 2019, published 2022).

Key:
human TRPA1 = target: T1, human TRPA1 (Homo sapiens, UniProt O75762); test: Rescue experiment, Trpa1b−/− embryos expressing hTRPA1 in Rohon-beard neurons; assay type: in vivo, zebrafish; conditions: 20 μM, motion within 5 s after 1 s WL3
T1 construct: 2A peptide (remnant stays on the channel) (C); EGFP (separated at the 2A site) (C, cleaved yes); expressed in transfected cells; host or cells: Rohon-Beard neurons of Trpa1b−/− zebrafish embryos, in vivo
T1 sequence (O75762 whole entry): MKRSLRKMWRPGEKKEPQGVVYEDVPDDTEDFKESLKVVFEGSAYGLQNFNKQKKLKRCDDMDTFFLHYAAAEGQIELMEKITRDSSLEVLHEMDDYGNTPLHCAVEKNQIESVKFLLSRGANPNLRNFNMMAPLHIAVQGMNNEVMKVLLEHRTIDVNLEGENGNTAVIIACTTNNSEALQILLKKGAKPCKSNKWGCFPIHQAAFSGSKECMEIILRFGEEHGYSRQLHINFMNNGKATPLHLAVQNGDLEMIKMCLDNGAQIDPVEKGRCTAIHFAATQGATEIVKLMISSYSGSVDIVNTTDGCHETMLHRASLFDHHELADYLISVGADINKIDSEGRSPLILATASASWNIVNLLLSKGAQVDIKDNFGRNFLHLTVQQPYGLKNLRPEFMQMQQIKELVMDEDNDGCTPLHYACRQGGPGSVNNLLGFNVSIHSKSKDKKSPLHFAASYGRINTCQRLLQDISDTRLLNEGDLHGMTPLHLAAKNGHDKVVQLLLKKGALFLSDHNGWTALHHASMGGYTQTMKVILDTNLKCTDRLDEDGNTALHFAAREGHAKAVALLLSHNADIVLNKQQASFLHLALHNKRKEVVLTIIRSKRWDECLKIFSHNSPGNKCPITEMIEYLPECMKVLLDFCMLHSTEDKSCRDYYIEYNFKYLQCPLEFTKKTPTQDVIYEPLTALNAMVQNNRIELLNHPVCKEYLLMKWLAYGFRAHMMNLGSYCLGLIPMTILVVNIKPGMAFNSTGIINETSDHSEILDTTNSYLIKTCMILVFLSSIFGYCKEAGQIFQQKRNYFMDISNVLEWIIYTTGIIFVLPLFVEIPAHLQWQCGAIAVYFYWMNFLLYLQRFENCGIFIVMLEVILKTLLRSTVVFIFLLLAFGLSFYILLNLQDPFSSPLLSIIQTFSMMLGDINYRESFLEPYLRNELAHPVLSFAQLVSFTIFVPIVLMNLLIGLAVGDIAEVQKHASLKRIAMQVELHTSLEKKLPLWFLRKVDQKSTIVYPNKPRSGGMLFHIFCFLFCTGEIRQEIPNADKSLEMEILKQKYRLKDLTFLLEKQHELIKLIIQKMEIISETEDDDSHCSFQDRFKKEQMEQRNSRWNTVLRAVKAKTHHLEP
Method: (§1) For Trpa1b ohnolog and paralog rescue experiments, Trpa1b^−/− embryos were injected with ngn1:zTrpa1b-2A-mCherry (partial plasmid sequence in SEQ ID NO:5), ngn1:zTrpa1a-2A-mCherry, ngn1:hTRPA1-2A-EGFP or ngn1:mTRPA1-2A-mCherry at the 1-cell stage for mosaic Rohon-beard neuron expression. Embryos were screened at 2 dpf for fluorescent expression in Rohon-beard neurons, incubated with 20 μM TRPswitch-B for 1 hr and decapitated posterior to the eyes right before experiments. NA 0.25 5× objective and 1 s WL3 light illumination was used.
(§2) To test the potential cross activity of TRPswitch-B on the zebrafish ohnolog Trpa1a and on mammalian orthologs, zebrafish Trpa1a, mouse TRPA1 or human TRPA1 were transiently re-expressed in the Rohon-beard neurons of mutant Trpa1b^−/− zebrafish and performed light-induced motion response experiments in the presence of TRPswitch-B. Rescue experiments were performed in Trpa1b^−/− zebrafish with transient mosaic re-expression of zebrafish Trpa1b (zTrpa1b), zebrafish Trpa1a (zTrpa1a), mouse TRPA1 (mTRPA1) or human TRPA1 (hTRAP1) in Rohon-beard neurons. Embryos were pre-treated with 20 μM TRPswitch-B and decapitated right before light stimulation to eliminate the light response mediated by the retina (Table 5). […]

[1] = system: zebrafish Trpa1b (zTrpa1b); test: Rescue experiment, Trpa1b−/− embryos re-expressing zTrpa1b in Rohon-beard neurons; assay type: in vivo; conditions: 20 μM, motion within 5 s after 1 s WL3
Method: as §1, §2

[2] = UV-Vis absorbance, E/Z isomerization with violet and green light; assay type: physicochemical; conditions: UV-Vis absorbance in DMSO
Method: Compounds were dissolved in DMSO at 250 μM and 260 μM for TRPswitch-A and TRPswitch-B, respectively and UV-Vis absorbance was measured using a NanoDrop 1000 (Thermo Scientific).

zebrafish Trpa1b = test: Whole-cell patch-clamp of HEK293T cells expressing zebrafish Trpa1b; assay type: cell-based
Method: Immortalized HEK293T cells or human colonic fibroblast cells (CCD-18Co; ATCC) were used. HEK293T cells were plated on […] cover slips and transiently transfected with 10 μg of Trpa1b plasmid (pCMV-zTrpa1b-FLAG) (SEQ ID NO:3) and 5 μg of mNeonGreen cDNA (Allele Biotechnology), then grown in a 6 cm plate for 24-48 h. CCD-18Co were cultured in Eagle's minimal essential medium with 10% FBS, 1× penicillin and streptomycin. CCD-18Co cells were plated on 12 mm cover slips and transiently transfected with 5 μg of zTrpa1b plasmid (pCMV-zTrpa1b-FLAG) together with 5 μg of mNeonGreen cDNA (Allele Biotechnology), then grown in a […] plate for 48-72 h. After this time, the cover slips were transferred to a recording chamber containing an extracellular solution composed of 145 mM sodium gluconate, 4 mM KCl, 3 mM MgCl2, 10 mM D-glucose, 10 mM HEPES; pH 7.4 adjusted with NaOH. The internal solution contained 122 mM cesium methane sulfonate, 1.8 mM MgCl2, 9 mM EGTA, 14 mM creatine phosphate (sodium salt), 4 mM Mg-ATP, 0.3 mM Na-GTP, 10 mM HEPES, pH 7.2 adjusted with CsOH. Borosilicate glass pipettes with a resistance of 3-5 MO were used. Whole cell currents were measured on an Axopatch 200B amplifier (Molecular De-vices) under the control of pClamp software. Signals were digitized through a Digidata1550B interface (Molecular Devices). Currents were filtered at 5 kHz (lowpass, Bessel) and sampled at 10 kHz prior to analysis with Clampfit software (Molecular Devices). All the plots and statistical tests were performed on Excel (Microsoft corp.). Basal Trpa1b whole cell currents were measured with a ramp protocol (˜100 to +100 mV, at a holding potential of 0 mV). Photoactive compounds were perfused into the recording chamber and a fluorescent light generated by mercury vapor short arc (U-HGLGPS, OLYMPUS) filtered through an ET-ECFP 434/17 nm filter and through a ET-mCherry 560 nm filter (Chroma Technology) was switched “on” and “off” for 10 s. All experiments were performed at room temperature. The p values were calculated using a two-tailed, paired Student's t-test.

WT embryos = test: Rescue experiment, WT embryos; assay type: in vivo, zebrafish; conditions: 20 μM, motion within 5 s after 1 s WL3
Method: as §1, §2

[3] = Photostationary state (PSS) determination; assay type: physicochemical
From the text: […] In the latter case, the pure Z isomer spectrum was estimated using methods described in previous publications.

[4] = UV-Vis spectroscopy in 30% water:DMSO, extrapolated pure Z spectrum, listed as TRPswitch-B

- % response (human TRPA1): 0%
- E/Z photoswitching with violet and green light ([2]; listed as TRPswitch-B): complete return
- 365 nm PSS (E-Z) ([3]; 1H NMR in DMSO-d6): 92% Z
- 420 nm PSS (E-Z) ([3]; 1H NMR in DMSO-d6): 55% Z
- 495 nm PSS (Z-E) ([3]; 1H NMR in DMSO-d6): 86% E
- Estimated 365 nm PSS (E-Z) [3, 4]: 92% Z
- Estimated 495 nm PSS (Z-E) [3, 4]: 100% E
SMILES: Cc1nn(C)c(C)c1/N=N/c1ccc(NC(=O)c2cccs2)cc1NC(=O)c1cccs1 [Compound 9, (E)-N,N′-(4-((1,3,5-trimethyl-1H-pyrazol-4-yl)diazenyl)-1,3-phenylene)bis(thiophene-2-carboxamide)]
- % response [1]: 38.5%
- E/Z photoswitching with violet and green light [2]: quantitative photoswitching in both directions
- current density fold increment after subsequent pulse of green light (zebrafish Trpa1b; +100 mV): 1.26±0.33 fold
- current density fold increment upon violet light illumination (zebrafish Trpa1b; +100 mV): 2.12±0.47 fold
- current density fold increment after subsequent pulse of green light (zebrafish Trpa1b; −100 mV): 1.41±0.38 fold
- current density fold increment upon violet light illumination (zebrafish Trpa1b; −100 mV): 2.27±0.38 fold
- % response (WT embryos): 65%
